# From ChEMBL document CHEMBL2321810, “QSAR investigation of NaV1.7 active compounds using the SVM/Signature approach and the Bioclipse Modeling platform” (Bioorg Med Chem Lett, 2013)
# Target: Sodium channel protein type 9 subunit alpha (Homo sapiens, UniProt Q15858)
# Assay: cell-based
# Chain of Sodium channel protein type 9 subunit alpha (Q15858 whole entry): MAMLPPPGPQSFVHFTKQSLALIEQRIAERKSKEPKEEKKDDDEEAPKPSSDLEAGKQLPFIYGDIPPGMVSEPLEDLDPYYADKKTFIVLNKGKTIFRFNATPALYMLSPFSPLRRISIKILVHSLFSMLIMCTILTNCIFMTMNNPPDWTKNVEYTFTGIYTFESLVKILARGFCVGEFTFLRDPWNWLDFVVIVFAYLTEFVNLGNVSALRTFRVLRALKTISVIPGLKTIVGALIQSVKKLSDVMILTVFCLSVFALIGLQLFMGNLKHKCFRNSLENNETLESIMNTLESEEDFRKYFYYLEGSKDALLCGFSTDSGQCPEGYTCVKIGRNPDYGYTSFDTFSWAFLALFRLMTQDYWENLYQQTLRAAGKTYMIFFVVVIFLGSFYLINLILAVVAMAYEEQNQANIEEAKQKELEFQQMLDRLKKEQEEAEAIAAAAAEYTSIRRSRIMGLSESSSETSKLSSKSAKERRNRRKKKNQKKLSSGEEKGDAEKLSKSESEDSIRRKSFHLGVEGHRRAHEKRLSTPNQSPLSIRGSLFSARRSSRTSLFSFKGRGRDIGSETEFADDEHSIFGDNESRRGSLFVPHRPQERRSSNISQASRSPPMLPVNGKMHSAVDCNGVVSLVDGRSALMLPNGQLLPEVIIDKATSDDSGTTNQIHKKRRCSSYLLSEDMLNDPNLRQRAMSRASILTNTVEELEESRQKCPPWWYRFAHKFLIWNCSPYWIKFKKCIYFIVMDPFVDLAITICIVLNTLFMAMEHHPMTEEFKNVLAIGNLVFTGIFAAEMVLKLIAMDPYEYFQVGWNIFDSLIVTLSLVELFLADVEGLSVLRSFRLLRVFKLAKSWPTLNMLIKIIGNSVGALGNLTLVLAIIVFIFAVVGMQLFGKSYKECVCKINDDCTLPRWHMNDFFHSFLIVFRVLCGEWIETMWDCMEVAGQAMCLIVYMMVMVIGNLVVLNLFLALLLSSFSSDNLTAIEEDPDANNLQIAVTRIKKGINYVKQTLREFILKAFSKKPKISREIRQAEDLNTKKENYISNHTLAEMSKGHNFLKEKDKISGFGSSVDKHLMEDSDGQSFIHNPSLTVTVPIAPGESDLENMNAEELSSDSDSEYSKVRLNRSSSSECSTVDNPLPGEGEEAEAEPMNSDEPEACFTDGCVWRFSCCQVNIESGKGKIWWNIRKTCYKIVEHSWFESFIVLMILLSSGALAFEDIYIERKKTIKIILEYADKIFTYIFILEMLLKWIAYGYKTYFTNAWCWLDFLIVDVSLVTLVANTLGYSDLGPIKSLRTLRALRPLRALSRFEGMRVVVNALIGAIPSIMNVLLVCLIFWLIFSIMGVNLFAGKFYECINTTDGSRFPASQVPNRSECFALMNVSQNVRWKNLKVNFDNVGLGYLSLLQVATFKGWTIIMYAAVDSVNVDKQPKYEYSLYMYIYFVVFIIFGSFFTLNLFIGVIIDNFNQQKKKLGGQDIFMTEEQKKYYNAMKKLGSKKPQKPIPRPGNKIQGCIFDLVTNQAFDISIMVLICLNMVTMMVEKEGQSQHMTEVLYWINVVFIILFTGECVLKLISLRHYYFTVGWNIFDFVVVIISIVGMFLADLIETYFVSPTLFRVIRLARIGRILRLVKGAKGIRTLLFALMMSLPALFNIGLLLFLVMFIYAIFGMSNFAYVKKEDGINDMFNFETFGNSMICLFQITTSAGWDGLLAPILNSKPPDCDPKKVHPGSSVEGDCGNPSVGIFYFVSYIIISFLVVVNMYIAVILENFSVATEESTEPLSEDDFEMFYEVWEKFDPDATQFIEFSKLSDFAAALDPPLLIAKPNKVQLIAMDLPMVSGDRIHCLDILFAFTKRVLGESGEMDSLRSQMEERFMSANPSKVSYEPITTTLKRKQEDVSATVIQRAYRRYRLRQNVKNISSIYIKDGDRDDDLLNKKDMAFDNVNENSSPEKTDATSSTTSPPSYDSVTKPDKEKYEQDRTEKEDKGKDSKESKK
row,IC50,Structure (SMILES)
1,3000 nM,COc1cc(Oc2ccc(S(=O)(=O)Nc3ccc(F)cn3)cc2C#N)ccc1-n1cccn1
2,930 nM,N#Cc1cc(S(=O)(=O)Nc2nccs2)ccc1Oc1cccc(-n2ccc(C(F)(F)F)n2)c1
3,1000 nM,N#Cc1cc(S(=O)(=O)Nc2nncs2)ccc1Oc1ccc(Cl)cc1-c1cc(N2CCOCC2)ncn1
4,1000 nM,CCn1nc(C(F)(F)F)cc1-c1cccc(Oc2ccc(S(=O)(=O)Nc3ccc(F)cn3)cc2C#N)c1
5,1000 nM,N#Cc1cc(S(=O)(=O)Nc2nccs2)ccc1Oc1ccc(-c2cc(C3CC3)n[nH]2)c(Cl)c1
6,1000 nM,N#Cc1cc(S(=O)(=O)Nc2nccs2)ccc1Oc1ccc(-n2cc(C(N)=O)cn2)cc1
7,1000 nM,N#Cc1cc(S(=O)(=O)Nc2cscn2)ccc1Oc1ccc(Cl)cc1-c1ccn(C(F)(F)F)n1
8,1000 nM,Cc1cc(C)n(-c2ccc(Oc3ccc(S(=O)(=O)Nc4nccs4)c(F)c3)cc2)n1
9,1000 nM,N#Cc1cc(SNc2ncns2)ccc1Oc1ccc(F)cc1C1CC1
10,1000 nM,N#Cc1cc(S(=O)(=O)Nc2ncns2)ccc1Oc1ccc(-n2cc(COC(=O)C(F)(F)F)cn2)cc1
11,1000 nM,N#Cc1cc(S(=O)(=O)Nc2ncns2)ccc1Oc1ccc(-n2cc(CO)cn2)cc1
12,1000 nM,N#Cc1cc(S(=O)(=O)Nc2nccs2)ccc1Oc1ccc(-c2cc(C(F)(F)F)n(CCCF)n2)cc1F
13,1000 nM,CC1CN(c2ccc(Oc3ccc(S(=O)(=O)Nc4nccs4)cc3C#N)cc2)C(=O)N1 (stereo not drawn)
14,1000 nM,CC(C)C1CN(c2ccc(Oc3ccc(S(=O)(=O)Nc4nccs4)cc3C#N)cc2)C(=O)N1 (stereo not drawn)
15,1000 nM,COC(=O)c1cc(Oc2ccc(S(=O)(=O)Nc3nccs3)cc2C#N)ccc1-n1cc(Cl)cn1
16,1000 nM,O=S(=O)(Nc1cscn1)c1cc(Cl)c(Oc2cc(C(F)(F)F)ccc2-c2cncnc2)cc1F
17,1000 nM,Cn1cnnc1-c1cc(Cl)ccc1Oc1ccc(S(=O)(=O)Nc2nccs2)cc1F
18,740 nM,N#Cc1cc(S(=O)(=O)Nc2ncns2)cc(F)c1Oc1ccc(F)cc1-c1cn[nH]c1
19,770 nM,CCn1nc(C(F)(F)F)cc1-c1ccc(Oc2ccc(S(=O)(=O)Nc3nncs3)cc2C#N)cc1
20,820 nM,CCn1nc(C(F)(F)F)cc1-c1ccc(Oc2ccc(S(=O)(=O)Nc3ncc(F)s3)cc2F)cc1
21,840 nM,Cc1cccc(-c2ccc(OC(C)C)cc2)c1Oc1ccc(S(=O)(=O)Nc2ncns2)cc1C#N
22,580 nM,N#Cc1cc(S(=O)(=O)Nc2nccs2)ccc1Oc1ccc(Cl)cc1-c1ccccn1
23,670 nM,N#Cc1cc(S(=O)(=O)Nc2ncns2)ccc1Oc1ccccc1-c1cccc(F)c1
24,740 nM,CN(C)C(=O)c1cccc(-c2ccccc2)c1Oc1ccc(S(=O)(=O)c2ncns2)cc1C#N

row,IC50,Structure (SMILES)
1,430 nM,N#Cc1cc(S(=O)(=O)Nc2nccs2)ccc1Oc1ccc(Cl)cc1-c1c[nH]nc1C(F)(F)F
2,530 nM,N#Cc1cc(S(=O)(=O)Nc2ncc(F)s2)ccc1Oc1ccccc1-c1ccccc1
3,350 nM,CC(C)(C)OC(=O)N1CCC(c2cc(Cl)ccc2Oc2ccc(S(=O)(=O)Nc3ncns3)cc2C#N)CC1
4,370 nM,N#Cc1cc(S(=O)(=O)Nc2nccs2)ccc1Oc1ccc(-c2cc(C(F)(F)F)ccn2)cc1
5,300 nM,Cc1nn(C(C)(C)C)cc1-c1cc(Cl)ccc1Oc1cc(F)c(S(=O)(=O)Nc2nncs2)cc1Cl
6,300 nM,N#Cc1cc(S(=O)(=O)Nc2ncns2)ccc1Oc1cc(C(F)(F)F)nn1Cc1ccccc1
7,300 nM,CCn1nc(C)c(-c2ccccc2Oc2ccc(S(=O)(=O)Nc3ncns3)cc2C#N)c1C
8,300 nM,CCOCn1nncc1-c1cc(Cl)ccc1Oc1ccc(S(=O)(=O)Nc2nccs2)cc1C#N
9,300 nM,Cn1cnc(-c2cc(Cl)ccc2Oc2ccc(S(=O)(=O)Nc3nccs3)cc2C#N)n1
10,300 nM,O=S(=O)(Nc1cscn1)c1cc(Cl)c(Oc2ccc(C(F)(F)F)cc2-c2cncc(CO)c2)cc1F
11,300 nM,Cn1ncnc1-c1cc(Cl)ccc1Oc1ccc(S(=O)(=O)Nc2ncc(F)s2)cc1C#N
12,220 nM,Cn1nccc1-c1cc(C(F)(F)F)ncc1Oc1ccc(S(=O)(=O)Nc2ncc(Cl)s2)cc1C#N
13,230 nM,N#Cc1cc(S(=O)(=O)Nc2nccs2)ccc1Oc1ccc(F)cc1-c1ccc(F)nc1
14,260 nM,O=S(=O)(Nc1cscn1)c1cc(Cl)c(Oc2cc(C(F)(F)F)ccc2-c2cn[nH]c2)cc1F
15,110 nM,N#Cc1cc(S(=O)(=O)Nc2ncns2)ccc1Oc1ccc(C(F)(F)F)cc1C1=CN(O)CC=C1
16,90 nM,CCn1nccc1-c1cc(F)ccc1Oc1ccc(S(=O)(=O)Nc2nccs2)cc1C#N
17,97 nM,N#Cc1cc(S(=O)(=O)Nc2ncc(Cl)s2)ccc1Oc1ccc(Cl)cc1-c1ccnc(N)c1
18,100 nM,N#Cc1cc(S(=O)(=O)Nc2nncs2)ccc1Oc1ccc(OC(F)(F)F)cc1-c1ccnnc1
19,50 nM,O=S(=O)(Nc1nncs1)c1ccc(Oc2ccc(Cl)cc2-c2ccn[nH]2)c(Cl)c1
20,56 nM,CC(C)(C)OC(=O)n1cc(-c2cc(Cl)ccc2Oc2cc(F)c(S(=O)(=O)Nc3nccs3)cc2F)cn1
21,25 nM,CC(C)(C)OC(=O)n1cc(-c2cc(Cl)ccc2Oc2cc(F)c(S(=O)(=O)Nc3ncc(F)s3)cc2F)cn1
22,19 nM,Nc1cc(-c2cc(Cl)ccc2Oc2cc(F)c(S(=O)(=O)Nc3cscn3)cc2F)ccn1
23,21 nM,NC1=NCN=C1c1cc(Cl)ccc1Oc1cc(F)c(S(=O)(=O)Nc2ccncn2)cc1Cl
24,22 nM,CCN1CC(n2nccc2-c2cc(C(F)(F)F)ccc2Oc2ccc(S(=O)(=O)Nc3cscn3)cc2C#N)C1

row,IC50,Structure (SMILES)
1,12 nM,N#Cc1cc(S(=O)(=O)Nc2ncns2)ccc1Oc1ccc(Cl)cc1-c1ccnn1C1CCC1
2,17 nM,N#Cc1cc(S(=O)(=O)Nc2ncns2)ccc1Oc1ccc(Cl)cc1-c1ccnn1C1CC1
3,10 nM,O=S(=O)(Nc1ncc(Cl)s1)c1cc(Cl)c(Oc2ccc(Cl)cc2C2CNC2)cc1F
4,12 nM,N#Cc1cc(S(=O)(=O)Nc2ncns2)ccc1Oc1ccc(C(F)(F)F)cc1-c1cccnc1
5,3000 nM,N#Cc1cc(S(=O)(=O)Nc2ccc(F)cn2)ccc1Oc1ccc(-c2cocn2)cc1
6,2700 nM,COc1cc(-c2ccc(Oc3ccc(S(=O)(=O)Nc4nccs4)cc3)c(F)c2)n(C)n1
7,3000 nM,N#Cc1cc(S(=O)(=O)Nc2ccc(F)cn2)ccc1Oc1ccccc1C1CCCCO1 (stereo not drawn)
8,3000 nM,N#Cc1cc(S(=O)(=O)Nc2ccccc2C(F)(F)F)ccc1Oc1ccccc1-c1ccccc1
9,3000 nM,CC(C)Oc1cc(-c2cc(F)ccc2Oc2ccc(S(=O)(=O)Nc3cscn3)cc2C#N)n(C)n1
10,3000 nM,Cc1ccc(NS(=O)(=O)c2ccc(Oc3ccccc3-c3ccccc3)c(C#N)c2)nc1
11,3000 nM,CCc1nnc(C)n1-c1ccc(Oc2ccc(S(=O)(=O)Nc3ccc(F)cn3)cc2C#N)cc1
12,3000 nM,N#Cc1cc(S(=O)(=O)Nc2ccc(F)cn2)ccc1Oc1ccc(-n2ccnc2)cc1
13,3000 nM,Cc1nc(-c2cccc(Oc3ccc(S(=O)(=O)Nc4ccc(F)cn4)cc3C#N)c2)no1
14,3000 nM,Cc1nnc(-c2ccc(Oc3ccc(S(=O)(=O)Nc4ccc(F)cn4)cc3C#N)cc2)o1
15,1500 nM,Cn1nccc1-c1cc(Cl)ccc1Oc1ccc(S(=O)(=O)Nc2ccon2)cc1C#N
16,1000 nM,N#Cc1cc(S(=O)(=O)Nc2ncns2)ccc1Oc1ccc(-c2nc(CO)co2)cc1
17,1000 nM,N#Cc1cc(S(=O)(=O)Nc2nccs2)ccc1Oc1ccc(-n2cc(F)cn2)cc1
18,1100 nM,Cc1cc(-c2ccnn2C)ccc1Oc1ccc(S(=O)(=O)Nc2ncc(F)s2)cc1C#N
19,1000 nM,CC(C)Oc1cc(-c2cc(F)ccc2Oc2ccc(S(=O)(=O)Nc3nccs3)cc2C#N)n(C)n1
20,1000 nM,CCn1nc(-c2ccc(Oc3ccc(S(=O)(=O)Nc4nccs4)cc3C#N)c(F)c2)cc1C(F)(F)F
21,1000 nM,N#Cc1cc(S(=O)(=O)Nc2nccs2)ccc1Oc1cnn(-c2ccc(Cl)cc2)c1
22,1000 nM,N#Cc1cc(S(=O)(=O)Nc2nccs2)ccc1Oc1cnn(-c2ccc(Cl)cc2Cl)c1
23,1000 nM,CCn1nc(C(F)(F)F)cc1-c1ccc(Oc2ccc(S(=O)(=O)Nc3ncccn3)cc2C#N)cc1
24,1000 nM,Cn1ncnc1-c1cc(Cl)ccc1Oc1ccc(S(=O)(=O)Nc2ncc(F)s2)cc1F

row,IC50,Structure (SMILES)
1,1000 nM,CN(C)C(=O)c1cnn(-c2ccc(Oc3ccc(S(=O)(=O)Nc4nccs4)cc3C#N)cc2)c1
2,1000 nM,COCc1cnn(-c2ccc(Oc3ccc(S(=O)(=O)Nc4nccs4)cc3C#N)cc2)c1
3,1000 nM,CN(C)Cc1cnn(-c2ccc(Oc3ccc(S(=O)(=O)Nc4nccs4)cc3C#N)cc2)c1
4,1000 nM,CC(C)(C)NC(=O)c1cnn(-c2ccc(Oc3ccc(S(=O)(=O)Nc4nccs4)cc3C#N)cc2)c1
5,1000 nM,N#Cc1cc(S(=O)(=O)Nc2cscn2)ccc1Oc1ccc(Cl)cc1-n1cnc(C(F)(F)F)c1
6,1000 nM,N#Cc1cc(S(=O)(=O)Nc2cscn2)ccc1Oc1ccc(F)cc1-c1cnn(CC(F)(F)F)c1
7,1000 nM,N#Cc1ccnc(NS(=O)(=O)c2ccc(Oc3ccccc3-c3ccccc3)c(C#N)c2)c1
8,1000 nM,Cn1nccc1-c1cccc(Oc2ccc(S(=O)(=O)Nc3nccs3)cc2C#N)c1
9,1000 nM,COc1cccc(-c2ccc(Oc3ccc(S(=O)(=O)Nc4nccs4)cc3C#N)cc2)n1
10,1000 nM,N#Cc1cc(S(=O)(=O)Nc2nccs2)ccc1Oc1ccc(-c2nccc(C(F)(F)F)n2)cc1
11,1000 nM,N#Cc1cc(S(=O)(=O)Nc2nccs2)ccc1Oc1ccc(-c2cn(CC(F)(F)F)nc2N)cc1
12,1000 nM,Cn1cc(-c2ccc(Oc3ccc(S(=O)(=O)Nc4nccs4)cc3C#N)cc2)c(N)n1
13,1000 nM,N#Cc1cc(S(=O)(=O)Nc2nccs2)ccc1Oc1ccc(N2CCNC2=O)cc1
14,1000 nM,CN1CCN(c2ccc(Oc3ccc(SNc4nccs4)cc3C#N)cc2)C1=O
15,1000 nM,N#Cc1cc(S(=O)(=O)Nc2nccs2)ccc1Oc1ccc(N2CCCC2=O)cc1
16,1000 nM,N#Cc1cc(S(=O)(=O)Nc2nccs2)ccc1Oc1ccc(-n2cccn2)cc1C(F)(F)F
17,1000 nM,N#Cc1cc(S(=O)(=O)Nc2nccs2)ccc1Oc1ccc(-n2cc(Cl)cn2)c(C(=O)O)c1
18,1000 nM,CC(C)(C)n1ccc(-c2cc(F)ccc2Oc2cc(F)c(S(=O)(=O)Nc3cscn3)cc2Cl)n1
19,1000 nM,Nc1nccc(-c2cc(F)ccc2Oc2cc(F)c(S(=O)(=O)Nc3ncc(Cl)s3)cc2F)n1
20,1000 nM,Cc1scnc1NS(=O)(=O)c1cc(Cl)c(Oc2ccc(F)cc2-c2ccnn2C)cc1F
21,1000 nM,Cn1nccc1-c1ccc(Oc2ccc(S(=O)(=O)Nc3nccs3)cc2C#N)cn1
